Values after ≈ are worked out from the molar mass of the structure shown.

The test system of one series is IL-6. Kind of series: Serum IL-6 in infected immunosuppressed mice (ELISA). In kind it is in vivo. The note with it: compounds 100 mg/kg/day, NTZ 250 mg/kg/day, orally 10 days, mean ± SD. The method, then:
(§1) Serum concentrations of IFN-γ, TNF-α, IL-6, and IL-10 for each group were determined using an enzyme-linked immunosorbent assay reader, following the manufacturer’s protocol.
In general terms: ELISA stands for enzyme-linked immunosorbent assay.

The next series deals with IL-10. Nature of the series: Serum IL-10 in infected immunosuppressed mice (ELISA). In kind it is in vivo. The note with it: compounds 100 mg/kg/day, NTZ 250 mg/kg/day, orally 10 days, mean ± SD. As for the experimental part:
as §1

The next series has as its system TNF-α. Kind of series: Serum TNF-α in infected immunosuppressed mice (ELISA). As to conditions: compounds 100 mg/kg/day, NTZ 250 mg/kg/day, orally 10 days, mean ± SD. The format is in vivo. As for the experimental part:
as §1

The next series has as its system Cryptosporidium oocysts. Kind of series: Oocyst shedding in feces of Cryptosporidium-infected immunosuppressed mice (modified Ziehl–Neelsen stain). In kind it is in vivo. As to conditions: compounds 100 mg/kg/day, NTZ 250 mg/kg/day, orally from 7th day post-infection for 10 days; for Shed oocysts/mg (Mean ± SD): immunosuppressed infected mice, feces 30 days post infection; for R%: reduction percent in oocyst count: vs infected non-treated G2. An excerpt: Cryptosporidium oocysts were obtained from the Parasitology Lab, Theodor Bilharz Research Institute, Giza, Egypt. Before infection, the oocysts were concentrated and counted in PBS using a hemocytometer. To maintain the organism cycle, five mice were inoculated with 3000–3500 oocysts using a tuberculin syringe in an intra-esophageal manner. ([Operario et al., 2015]).
Eighty healthy laboratory-bred adult male Swiss albino mice weighing 30–40 g were purchased from the animal house of the Faculty of Pharmacy, Pharos University. The animals were allowed to acclimatize for 1 week to the environmental conditions and housed in grouped plastic cages away from direct sunlight, under appropriate sanitary conditions and controlled temperature and humidity.
Immune suppression was induced and maintained throughout the experiment by administering dexamethasone (Dexazone, Al Kahira Pharmaceutical and Chemical Industries) through oral-gastric gavage at a dose of 0.25 mg/g/d for 14 consecutive days prior to inoculation with Cryptosporidium oocysts. ([Najoom et al., 2021]).
On day 15 of dexamethasone treatment, mice in the infected groups were inoculated with 10^4 Cryptosporidium oocysts using oral-gastric gavage. Before infection, oocysts were concentrated and counted in PBS using a hemocytometer.
Mice were distributed equally into eight groups of 10 each. At the end of the experiment, all animals were anesthetized for parasitological, ultrastructural, immunological, and biochemical studies. Mice grouping details are provided in the Supplementary Material.
On the final day of the experiment (30 days post infection), fresh fecal pellets from the infected mice in each group were collected to count the number of oocysts. Every sample was homogenized through suspension in double-distilled H2O. Subsequently, a fecal smear of 1 mg feces was prepared and stained using the modified Ziehl–Neelsen staining method. The stained fecal smear was examined microscopically, and the Cryptosporidium oocysts were counted. The number of oocysts per mg feces for each mouse was tabulated as the mean value for each group. All reported data represent the means of three independent trials.

Series [1] in a line: Hemolytic activity assay (cytotoxicity on RBCs). As to conditions: rat, washed erythrocytes (RBCs) suspended in PBS, 60 min at 37°C; for hemolysis at 60 min, 62.5 μg/mL: pH 7.4, 62.5 μg/mL; for hemolysis at 60 min, 125 μg/mL: pH 7.4, 125 μg/mL; for hemolysis at 60 min, 250 μg/mL: pH 7.4, 250 μg/mL; for hemolysis at 60 min, 500 μg/mL: pH 7.4, 500 μg/mL; for hemolysis at 60 min, 1000 μg/mL: pH 7.4, 1,000 μg/mL. In kind it is cell-based, rat. As for the experimental part:
(§2) The hemolytic effect of different compounds was evaluated using an existing method. ([Diaconu et al., 2020]). One milliliter of rat blood was collected, added to a sterile, screw-top EDTA tube, and centrifuged at 3000 rpm for 20 min. The upper layer was decanted, and the erythrocytes were rinsed several times with 10 mL of cooled isotonic and sterile phosphate-buffered saline (PBS) with a pH of 7.4. The rinsed cells were re-suspended in 20 mL sterile, cold PBS. The compounds (serial dilutions of 62.5–1,000 μg/mL in DMSO) were added to the erythrocyte solution and incubated for 60 min at 37°C. After centrifugation at 3000 rpm for 10 min, the absorbance of hemoglobin in the supernatant at 540 nm was used to calculate the hemolysis rate. Triton X-100 (0.1% in PBS) was used as a positive control, and the vehicle (PBS/DMSO) was used as the negative control. The hemolysis percentage was calculated as follows: Hemolysis percentage = (Ab of sample − Ab of negative control)/(Ab of positive control–Ab of negative control) × 100.

The next series has as its system IFN-γ. Nature of the series: Serum IFN-γ in infected immunosuppressed mice (ELISA). In kind it is in vivo. The note with it: compounds 100 mg/kg/day, NTZ 250 mg/kg/day, orally 10 days, mean ± SD. The method, then:
as §1

The test system of series [2] is small intestinal epithelial cells. Nature of the series: TEM of small intestine sections of treated infected mice. The format is in vivo. As for the experimental part: The small intestine of each mouse was removed, cut into small pieces (1 mm^3), fixed in 2% glutaraldehyde in 0.1 M phosphate buffer, postfixed in 1% osmium tetraoxide for 2 h at 4°C, dehydrated, and embedded in Epon. Semi-thin and ultrathin sections (two samples per mouse) were prepared using an ultramicrotome. The sections were stained and analyzed using a transmission electron microscope.

The next series relates to RBCs. Kind of series: Hemolytic activity assay (cytotoxicity on RBCs). The format is cell-based, rat. As to conditions: for IC50: Rattus norvegicus, read-out: IC50: sample concentration causing 50% hemolysis of RBCs, highest tested concentration 1,000 μg/mL. The method, then:
as §2

As for `Cc1ccc(C(C)C)c(OCC(=O)NN2C(=O)c3ccc(C(=O)O)cc3C2=O)c1` [Compound 5b, 2-(2-(2-Isopropyl-5-methylphenoxy)acetamido)-1,3-dioxoisoindoline-5-carboxylic acid], the IL-6 with IL-6 amounted to 181.7 ± 149 pg/mL. In the series on IL-10, the IL-10 was 387.8 ± 0.78 pg/mL. The same molecule yielded a TNF-α with TNF-α of 13.7 ± 1.25 pg/mL. Besides, in the series with Cryptosporidium oocysts, the “Shed oocysts/mg (Mean ± SD)” value is given as 14.7 ± 0.67 oocysts/mg and the “R%: reduction percent in oocyst count” value was 57%. Further, in series [1], the hemolysis at 60 min, 62.5 μg/mL was 0%; the hemolysis at 60 min, 125 μg/mL came to 0%; the hemolysis at 60 min, 250 μg/mL worked out at 0%; the hemolysis at 60 min, 500 μg/mL was 0%. The hemolysis at 60 min, 1000 μg/mL in series [1] was 0%. The same molecule returned an IFN-γ with IFN-γ of 494.2 ± 3.15 pg/mL.

`CC(=O)Oc1ccccc1C(=O)Nc1ncc([N+](=O)[O-])s1` [NTZ, nitazoxanide, reference compound]: the “TEM ultrastructure of small intestine sections” value in series [2] is “normal ultrastructure and regularly arranged apical microvilli with oval euchromatic nuclei”. The TNF-α in the series with TNF-α amounted to 7.8 ± 0.91 pg/mL. Also, in the series on Cryptosporidium oocysts, the “Shed oocysts/mg (Mean ± SD)” value amounted to 10.4 ± 0.51 oocysts/mg and the “R%: reduction percent in oocyst count” value worked out at 70%. In the series on IFN-γ, this molecule came in with an IFN-γ of 422.1 ± 3.21 pg/mL.

In turn, `Cc1ccc(C(C)C)c(OCC(=O)NN2C(=O)c3ccccc3C2=O)c1` [Compound 5a, N-(1,3-dioxoisoindolin-2-yl)-2-(2-isopropyl-5-methylphenoxy)acetamide] registered an IL-6 in the series with IL-6 of 176.8 ± 0.91 pg/mL. The IL-10 in the series on IL-10 amounted to 327.6 ± 1.34 pg/mL. Besides, the TNF-α in the series on TNF-α came out at 13.1 ± 0.99 pg/mL. Moreover, in the series on Cryptosporidium oocysts, the “Shed oocysts/mg (Mean ± SD)” value was 13.2 ± 1.034 oocysts/mg and the “R%: reduction percent in oocyst count” value was determined as 62%. In series [1], the hemolysis at 60 min, 62.5 μg/mL came to 0%; the hemolysis at 60 min, 125 μg/mL was 0%; the hemolysis at 60 min, 250 μg/mL came to 0%; the hemolysis at 60 min, 500 μg/mL is 0%. The hemolysis at 60 min, 1000 μg/mL in series [1] worked out at 0%. Besides, in the series with IFN-γ, the IFN-γ turned out to be 477.8 ± 1.61 pg/mL.

The molecule `Cc1ccc(C(C)C)c(OCC(=O)Nn2c(=O)c3cc4c(=O)n(NC(=O)COc5cc(C)ccc5C(C)C)c(=O)c4cc3c2=O)c1` [Compound 9, N,N'-(1,3,5,7-tetraoxopyrrolo[3,4-f]isoindole-2,6(1H,3H,5H,7H)-diyl)bis(2-(2-isopropyl-5-methylphenoxy)acetamide)] came in with an IL-6 in the series with IL-6 of 215.7 ± 1.15 pg/mL. In the series with IL-10, the IL-10 is 416.8 ± 0.63 pg/mL. Moreover, the TNF-α in the series on TNF-α came out at 16.2 ± 1.03 pg/mL. Besides, in the series on Cryptosporidium oocysts, the “Shed oocysts/mg (Mean ± SD)” value was determined as 15.4 ± 0.52 oocysts/mg and the “R%: reduction percent in oocyst count” value is 55%. In series [1], this molecule yielded a hemolysis at 60 min, 62.5 μg/mL of 0%; a hemolysis at 60 min, 125 μg/mL of 0%; a hemolysis at 60 min, 250 μg/mL of 0%; a hemolysis at 60 min, 500 μg/mL of 0%. Moreover, the hemolysis at 60 min, 1000 μg/mL in series [1] turned out to be 35%. Moreover, the IC50 with RBCs is 1560 µg/mL (≈ 2.48 mM). Besides, the IFN-γ with IFN-γ is on record as 534.2 ± 1.26 pg/mL.

Turning to `Cc1ccc(C(C)C)c(OCC(=O)NN2C(=O)c3cccc4cccc(c34)C2=O)c1` [Compound 7a, N-(1,3-dioxo-1H-benzo[de]isoquinolin-2(3H)-yl)-2-(2-isopropyl-5-methylphenoxy) acetamide], in the series with IL-6, the IL-6 was found to be 237.4 ± 2.23 pg/mL. The IL-10 in the series on IL-10 is recorded as 434.2 ± 1.13 pg/mL. Further, the TNF-α in the series with TNF-α is 15.9 ± 0.87 pg/mL. In the series with Cryptosporidium oocysts, the “Shed oocysts/mg (Mean ± SD)” value was determined as 16.8 ± 0.63 oocysts/mg and the “R%: reduction percent in oocyst count” value is reported as 51%. In series [1], this molecule came in with a hemolysis at 60 min, 62.5 μg/mL of 0%; a hemolysis at 60 min, 125 μg/mL of 0%; a hemolysis at 60 min, 250 μg/mL of 0%; a hemolysis at 60 min, 500 μg/mL of 5.02%. This molecule also displayed a hemolysis at 60 min, 1000 μg/mL in series [1] of 6.18%. Also, the Hemolysis % in the series with RBCs (1,000 μg/mL, 60 min at 37°C) turned out to be 6.1873%. Further, in the series with RBCs, the IC50 came to 6750 µg/mL (≈ 16.8 mM). This molecule also returned an IFN-γ in the series on IFN-γ of 608.8 ± 2.48 pg/mL.

Consider `Cc1ccc(C(C)C)c(OCC(=O)NN2C(=O)c3cccc4c(N)ccc(c34)C2=O)c1` [Compound 7b, N-(6-amino-1,3-dioxo-1H-benzo[de]isoquinolin-2(3H)-yl)-2-(2-isopropyl-5-methylphenoxy)acetamide], for which the IL-6 in the series with IL-6 is reported as 143.1 ± 1.1 pg/mL. In addition, in series [2], the “TEM ultrastructure of small intestine sections” value was “healthy microvilli (slightly disfigured and disarranged)”. The IL-10 in the series with IL-10 came to 277.2 ± 1.47 pg/mL. The molecule also yielded a TNF-α in the series with TNF-α of 11.8 ± 1.03 pg/mL. Also, in the series on Cryptosporidium oocysts, the “Shed oocysts/mg (Mean ± SD)” value is reported as 11.5 ± 0.85 oocysts/mg and the “R%: reduction percent in oocyst count” value worked out at 67%. In series [1], the hemolysis at 60 min, 62.5 μg/mL turned out to be 0%; the hemolysis at 60 min, 125 μg/mL amounted to 0%; the hemolysis at 60 min, 250 μg/mL amounted to 0%; the hemolysis at 60 min, 500 μg/mL worked out at 0%. This molecule also registered a hemolysis at 60 min, 1000 μg/mL in series [1] of 0%. In the series on IFN-γ, this molecule showed an IFN-γ of 415.2 ± 2.57 pg/mL.

Source of the values: paper PMC12134901, “Synthesis and characterization of thymol-derived phenoxy acetamide derivatives using DFT, molecular docking, and parasitological investigations” (Frontiers in Chemistry, 2025).
